According to the supplement of paper PMC10307832:

Key:
Test in all cases: relative viability (nuclei count vs DMSO), 5 days (fraction); higher = more cells survive
[1] = compound: CCN(CC)CCNC(=O)c1c(C)[nH]c(/C=C2\C(=O)Nc3ccc(F)cc32)c1C [Sunitinib] + O=C(CCCCCCC(=O)Nc1ccccc1)NO [Vorinostat] (partner 1 µM)
In short: (§1)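 One day after seeding in 1536-well plates, lung cancer cell lines were dosed by pin tool. Dosing was either single-drug or a fixed anchor-drug dose plus five library-drug doses (not always all listed) in √10 steps. After 5 days, nuclei were stained in one fix-and-stain step and counted on 4× images, and relative viability is the nuclei count of treated wells over that of vehicle wells, given as the median of duplicate plates.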

[2] = compound: CCN(CC)CCNC(=O)c1c(C)[nH]c(/C=C2\C(=O)Nc3ccc(F)cc32)c1C [Sunitinib] + C[C@]1(O)C[C@@H](c2nc(-c3ccc4ccc(-c5ccccc5)nc4c3)c3c(N)nccn32)C1 [Linsitinib] (partner 1 µM)
In short: as §1

[3] = compound: CCN(CC)CCNC(=O)c1c(C)[nH]c(/C=C2\C(=O)Nc3ccc(F)cc32)c1C [Sunitinib] + CC1(C)CCC(c2ccc(Cl)cc2)=C(CN2CCN(c3ccc(C(=O)NS(=O)(=O)c4ccc(N[C@H](CCN5CCOCC5)CSc5ccccc5)c(S(=O)(=O)C(F)(F)F)c4)cc3)CC2)C1 [Navitoclax] (partner 0.5 µM)
In short: as §1

[4] = compound: CCN(CC)CCNC(=O)c1c(C)[nH]c(/C=C2\C(=O)Nc3ccc(F)cc32)c1C [Sunitinib] + Cc1nc(NC(=O)N2CCC[C@H]2C(N)=O)sc1-c1ccnc(C(C)(C)C(F)(F)F)c1 [Alpelisib] (partner 2 µM)
In short: as §1

| Cell Line | relative viability ([1]; first compound 0.02 µM) | relative viability ([1]; first compound 0.06325 µM) | relative viability ([1]; first compound 0.2 µM) | relative viability ([1]; first compound 0.6325 µM) | relative viability ([1]; first compound 2 µM) | relative viability ([2]; first compound 0.02 µM) | relative viability ([2]; first compound 0.2 µM) | relative viability ([2]; first compound 0.6325 µM) | relative viability ([2]; first compound 2 µM) | relative viability ([3]; first compound 0.02 µM) | relative viability ([3]; first compound 0.06325 µM) | relative viability ([3]; first compound 0.2 µM) | relative viability ([3]; first compound 0.6325 µM) | relative viability ([3]; first compound 2 µM) | relative viability ([4]; first compound 0.02 µM) | relative viability ([4]; first compound 0.06325 µM) | relative viability ([4]; first compound 0.2 µM) | relative viability ([4]; first compound 0.6325 µM) | relative viability ([4]; first compound 2 µM) | relative viability ([2]; first compound 0.06325 µM) |
| --- | --- | --- | --- | --- | --- | --- | --- | --- | --- | --- | --- | --- | --- | --- | --- | --- | --- | --- | --- | --- |
| NCI-H460 | 0.667 | 0.848 | 1.01 | 0.91 | 0.836 | 0.662 | 0.95 | 0.927 | 0.699 | 0.862 | 1.19 | 1.37 | 1.41 | 1.08 | 0.454 | 0.567 | 0.615 | 0.661 | 0.258 |  |
| COR-L 105 | 0.856 | 0.646 | 0.817 | 0.797 | 0.744 | 1.02 | 0.839 | 1.15 | 1.03 | 0.752 | 0.868 | 0.832 | 0.921 | 0.959 | 0.925 | 0.835 | 1.04 | 1.23 | 0.829 | 0.994 |
| NCI-H1975 | 0.693 | 0.714 | 0.77 | 0.733 | 0.666 |  | 1.01 | 0.986 | 0.868 | 1.07 | 1.15 | 1.11 | 1.12 | 1.12 | 0.597 | 0.686 | 0.669 | 0.677 | 0.381 | 0.969 |
| NCI-H2228 | 0.412 | 0.705 | 0.626 | 1.03 | 0.764 | 0.611 | 0.841 | 0.808 | 0.349 | 0.87 | 0.792 | 1 | 0.96 | 0.524 | 0.735 | 0.729 | 1 | 0.717 | 0.538 | 0.584 |
| LC-2-ad | 0.673 | 0.767 | 0.774 | 0.799 | 0.698 | 0.839 | 0.89 | 0.844 | 0.677 | 0.381 | 0.495 | 0.714 | 0.406 | 0.355 | 0.897 | 0.613 |  | 0.891 | 0.605 | 0.918 |
| HARA | 0.525 | 0.518 | 0.687 | 0.441 | 0.553 | 0.948 | 1.14 | 0.956 | 0.858 | 1.05 | 1.18 | 1.16 | 1.18 | 1.2 | 0.816 | 0.947 | 0.979 |  | 0.743 | 0.978 |
| PC-3 [JPC-3] | 0.919 | 0.805 | 0.858 | 0.904 | 0.928 | 0.978 | 0.951 | 0.987 | 0.881 | 0.843 | 0.906 | 0.846 | 0.879 | 0.797 | 1.1 | 1.07 | 1.03 | 1.07 | 0.99 | 0.975 |
| LCLC-97TM1 | 0.638 | 0.943 | 0.713 | 0.887 | 0.768 | 0.176 |  | 0.213 | 0.191 | 0.465 | 0.402 |  | 0.401 | 0.323 | 0.24 | 0.351 |  | 0.276 | 0.286 | 0.197 |
| LU99A | 0.468 | 0.625 | 0.514 | 0.516 | 0.44 | 0.455 | 0.602 | 0.652 | 0.474 | 0.807 | 0.765 |  | 0.882 | 0.788 | 0.512 | 0.547 | 0.586 | 0.566 |  | 0.574 |
